{"source": "patent US20210196899A1", "about": "“MICRONEEDLE COATED WITH DRUG AND MANUFACTURING METHOD FOR SAME” (SR BIOTEK INC., priority 2018, published 2021)", "tested_on": "Fibroblasts (CCD-986SK)", "test": "Measurement of collagen content in cell line (Procollagen type I peptide EIA kit)", "format": "cell-based", "details": "FIG. 4", "description": "The culture supernatant was collected and the amount of collagen was measured as described below according to the guidelines of the Ministry of Food and Drug Safety, and the results thereof are shown in FIG. 4.\n100 μl of an antibody-PoD conjugate solution was placed in each well, after which the culture solution and a standard solution were added in an amount of 20 μL thereto and cultured at 37° C. for 3 hr. The culture solution was removed from the well, followed by washing four times with 400 μL of a phosphate-buffered saline (PBS). 100 μL of a color development reagent (Procollagen type I peptide EIA kit, Takara Biomedical Co.) was added thereto, followed by culture at room temperature for 15 min, addition with 100 μL of 1 N sulfuric acid, and measurement at 450 nm using an ELISA reader.", "note": "No end group written: not given here."}
{"compound": "NCCCC[C@H](NC(=O)[C@H](Cc1c[nH]cn1)NC(=O)CNC(=O)CS)C(=O)O", "note": "[GHK-TA]", "values": [{"measurement": "collagen synthesis and promotion effects", "setting": "concentration of 70 to 80 ppm, 24 hr", "result": "superior collagen synthesis and promotion effects"}]}
{"compound": "(EEMQRR)-TA: sulfhydryl-hexapeptide of Example 1-3-1-3; Chemical Formula 7 Glu-Glu-Met-Gln-Arg-Arg-X with linker X thioglycolic acid (TA) (EEMQRR-{thioglycolic acid})", "values": [{"measurement": "collagen synthesis and promotion effects", "setting": "thioglycolic acid (TA) as the linker compared to cysteine (CS) as the linker", "result": "superior collagen synthesis and promotion effects"}]}
{"compound": "KTTKS-TA: sulfhydryl KTTKS of Example 1-3-1-2; Chemical Formula 5 Lys-Thr-Thr-Lys-Ser-X with linker X thioglycolic acid (TA) (KTTKS-{thioglycolic acid})", "values": [{"measurement": "collagen synthesis and promotion effects", "setting": "50 to 200 ppm", "result": "vastly superior compared to KTTKS"}]}
{"compound": "KTTKS [reference compound]", "values": [{"measurement": "collagen synthesis and promotion effects", "setting": "50 to 200 ppm", "result": "increased in proportion to the concentration"}]}
